Test results: ChEMBL document CHEMBL3864126, “Identification of SENP1 inhibitors through in silico screening and rational drug design” (Eur J Med Chem, 2016)
pIC50: −log10 of the molar value.

Biological target: T1, Sentrin-specific protease 1 (Homo sapiens, UniProt Q9P0U3)
T1 sequence (Q9P0U3 whole entry): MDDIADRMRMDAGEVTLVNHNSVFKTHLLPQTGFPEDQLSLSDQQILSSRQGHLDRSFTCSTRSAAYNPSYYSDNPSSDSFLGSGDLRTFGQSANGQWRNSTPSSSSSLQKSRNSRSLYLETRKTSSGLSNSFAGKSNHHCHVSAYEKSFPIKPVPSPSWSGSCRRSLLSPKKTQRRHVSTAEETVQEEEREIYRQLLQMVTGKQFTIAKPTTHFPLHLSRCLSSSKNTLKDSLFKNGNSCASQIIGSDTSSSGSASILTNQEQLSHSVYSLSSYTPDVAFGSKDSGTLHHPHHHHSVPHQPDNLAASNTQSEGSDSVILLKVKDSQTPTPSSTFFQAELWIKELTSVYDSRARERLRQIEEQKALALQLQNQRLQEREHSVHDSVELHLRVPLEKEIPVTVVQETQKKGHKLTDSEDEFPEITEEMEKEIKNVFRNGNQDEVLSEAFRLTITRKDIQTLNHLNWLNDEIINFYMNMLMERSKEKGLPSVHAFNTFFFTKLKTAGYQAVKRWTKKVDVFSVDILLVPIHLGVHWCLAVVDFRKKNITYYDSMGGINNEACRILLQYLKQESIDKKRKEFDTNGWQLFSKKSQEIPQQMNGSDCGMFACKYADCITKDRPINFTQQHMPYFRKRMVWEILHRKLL
Assay: Inhibition of SENP1 catalytic domain (419 to 644 residues) (unknown origin) expressed in Escherichia coli BL21 (DE3) assessed as reduction in deSUMOylation preincubated for 10 mins followed by addition of RanGAP-SUMO as substrate measured after 25 mins by coomassie staining-based SDS-PAGE analysis

A pIC50 of 4.85 was found for `O=C(N/N=C/C1CCCCC1)c1cc(Cl)ccc1O` in this work.
